Nine compounds from patent US9745631B2, “Methods for diagnosing and treating oncogenic kras-associated cancer” (Dana-Farber Cancer Institute, Inc., priority 2011, dated 2017) can be followed below.

Holding throughout (assay type): cell-based, mouse
Series [1] has as its system iKras p53L/+ cells. As to the kind of experiment: Western blot for phospho-Akt, phospho-Erk, phospho-S6 and Myc in inhibitor-treated cells. The settings on record: MEK inhibitor treatment (AZD8330 50 nM, 18 hr). On the procedure: FIG. 42 is a photograph of a Western blot showing expression of phospho-Akt, phospho-Erk, phospho-S6, Myc, and Actin (loading control) in iKras p53L/+ cells treated with AZD8330 (50 nM), BKM120 (150 nM), or Rapamycin (20 nM) for 18 hours. As control, cells were cultured in the presence or absence of doxycycline for 24 hours.
Tissues were fixed in 10% formalin overnight and embedded in paraffin. Immunohistochemical analysis was performed as described (see, Aguirre et al. (2003) Genes Dev 17:3112-3126). The visualization of primary antibodies was performed with horseradish peroxidase system (Vectastain ABC kit, Vector Labs, Inc., Burlingame, Calif.). Images were captured using a Leica DM1400B microsystem and Leica FW4000 version 1.2.1. […]
To further dissect the downstream mechanism of Kras^G12D-mediated metabolic reprogramming, specific pharmacological inhibitors were used to examine the impact of effector pathways on tumor metabolism. iKras p53L/+ cells were treated with AZD8330 (50 nM), BKM120 (150 nM), or Rapamycin (20 nM) for 18 hr. In parallel, cells were cultured in the presence or absence of doxy for 24 hr to serve as controls and relative mRNA levels of indicated metabolism genes were measured by QPCR. […]

Series [2] has as its system iKras p53L/+ cells. As to the kind of experiment: Steady-state metabolite levels by targeted LC-MS/MS in inhibitor-treated cells. The settings on record: 18 hr. On the procedure: FIG. 43 is a bar graph showing the relative steady-state levels of the indicated metabolites measured by targeted LC-MS/MS, in iKras p53L/+ cells treated with AZD8330 (50 nM), BKM120 (150 nM), or Rapamycin (20 nM) for 18 hours. As control, cells were cultured in the presence or absence of doxycycline for 24 hours. Error bars represent SD of the mean. *p<0.05; **p<0.01.
Two independent iKras p53^L/+ tumor lines and one LSL-Kras p53^L/+ line were maintained in basal media in the presence or absence of doxycycline for 24 h. Fresh media was added 2 hours before the experiment. For metabolite collection, media from technical triplicates (in 10 cm dishes at ˜70% confluence) was fully aspirated and 4 mL of 80% (v/v) methanol was added at dry ice temperatures. Cells and the metabolite-containing supernatants were collected into conical tubes. Insoluble material in lysates was centrifuged at 2,000×g for 15 min, and the resulting supernatant was evaporated using a refrigerated speed vac. […] Ten microliters were injected and analyzed using a 5500 QTRAP hybrid triple quadrupole mass spectrometer (AB/SCIEX) coupled to a Prominence UFLC HPLC system (Shimadzu) via selected reaction monitoring (SRM) of a total of 254 endogenous water soluble metabolites for steady-state analyses of samples. […] Approximately 9-12 data points were acquired per detected metabolite. […]

Series [3] relates to iKras p53L/+ cells. Put plainly: QPCR of metabolism genes in inhibitor-treated iKras p53L/+ cells. Particulars: AZD8330 50 nM, 18 hr, FIG. 41. On the procedure: FIG. 41 is a bar graph showing the relative mRNA expression of the indicated genes in iKras p53L/+ cells treated with MEK inhibitor, AZD8330 (50 nM), BKM120 (150 nM), or Rapamycin (20 nM) for 18 hours. Error bars represent SD of the mean; *p<0.05; **p<0.01.
To further dissect the downstream mechanism of Kras^G12D-mediated metabolic reprogramming, specific pharmacological inhibitors were used to examine the impact of effector pathways on tumor metabolism. iKras p53L/+ cells were treated with AZD8330 (50 nM), BKM120 (150 nM), or Rapamycin (20 nM) for 18 hr. In parallel, cells were cultured in the presence or absence of doxy for 24 hr to serve as controls and relative mRNA levels of indicated metabolism genes were measured by QPCR. Some cell lysates were blotted for phospho-Akt, phospho-Erk, phospho-S6, and Myc. […] To gain further insight into the Kras^G12D-mediated transcriptional regulation that facilitates metabolic reprogramming, promoter analysis was performed on differentially expressed genes upon Kras^G12D inactivation.

In series [4] the test system is iKras p53L/+ cells. Put plainly: GSH and GSSG levels normalized to cell number. The settings on record: 0.5 mM BSO for 24 hours, FIG. 33. On the procedure:
FIG. 33 is a bar graph quantifying the GSH and GSSG levels normalized to cell number in iKras p53L/+ cells or constitutive LSL-KrasG12D p53L/+ control cells (LSL-Kras) maintained in the presence or absence of doxycycline (Dox+/−) or treated with 0.5 mM BSO for 24 hours; statistical significance is indicated as follows: *: p<0.05.
Doxycycline (Research Product International), BSO (Sigma), Ras activation assay kit (Millipore), G6PD activity assay kit (BioVision), GSH/GSSG-Glo™ assay kit (Promega, Madison, Wis.).
To explore this possibility in the context of Kras^G12D-driven PDAC, ^14C1- or ^14C6-labeled glucose was used to measure the production of CO2 from the oxidative PPP (^14C1—CO2) relative to that generated from the glycolysis-TCA cycle route (^14C6—CO2). Consistent with data showing that Kras^G12D de-induction exerts a minimal effect on TCA cycle intermediates (FIG. 18), no obvious change in the release of ^14C6—CO2 was observed upon doxycycline withdrawal (FIG. 32). More importantly, no significant decrease in the release of ^14C1—CO2 was detected (FIG. 32), indicating Kras^G12D extinction was not associated with decreased flux through the oxidative arm of the PPP.

The next series relates to iKras p53L/+ PDAC cells. As to the kind of experiment: Clonogenic assay. The settings on record: shRNA against FASN, FIG. 49. As for the experimental part:
FIG. 38 is a bar graph quantifying the clonogenic activity, expressed as colony number, in iKras p53L/+ cells maintained under high (11 mM) or low (1 mM) glucose, determined for cells infected with shRNA against GFP, RPIA, RPE, or RPIA+RPE; statistical significance is indicated as follows: *: p<0.05; **: p<0.01.
FIG. 49 is a bar graph quantifying the colony numbers in a clonogenic assay for iKras p53L/+ PDAC cells infected with shRNA against GFP or FASN.
400 cells were seeded into each well of 6-well plate in duplicate and colonies were stained 7-10 days later with 0.2% crystal violet in 80% methanol.

A further series deals with FASN. As to the kind of experiment: Relative expression of FASN after shRNA against FASN. The settings on record: iKras p53L/+ PDAC, FIG. 48. From the text: FIG. 48 is a bar graph quantifying the relative expression level of FASN in iKras p53L/+ PDAC infected with shRNA against GFP or FASN.
(§1) Lentiviral shRNA clones targeting Gfpt1, RPIA, RPE, MYC, and FASN and nontargeting control construct shGFP were obtained from the RNAi Consortium at the Dana-Farber/Broad Institute. The clone IDs and nucleic acid sequences for the shRNAs are:
As shown in Example 4, above, extinction of iKras led to decreased expression of FASN. Thus, it was next determined whether FASN plays a role in tumorigenesis in PDAC tumor model. iKras p53L/+ PDAC were treated with shRNA against FASN or GFP (control). […] Thus, FASN was determined to play a role in tumorigenic activity of iKras p53L/+ PDAC cells.

The test system of a further series is Gfpt1. Put plainly: Western blot for O-GlcNAc after shRNA knockdown of Gfpt1. The settings on record: shRNA against Gfpt1, FIG. 25. On the procedure: FIG. 25 is a photograph of a Western blot analysis for O-GlcNAc and Gfpt1 levels in KrasG12D p53L/+ cells infected with shRNA against GFP or Gfpt1. For control samples, MEFs were cultured in the presence or absence of glucose (Glc+, Glc−) for 24 hours. Actin was used as a loading control.
Tissues were fixed in 10% formalin overnight and embedded in paraffin. Immunohistochemical analysis was performed as described (see, Aguirre et al. (2003) Genes Dev 17:3112-3126). The visualization of primary antibodies was performed with horseradish peroxidase system (Vectastain ABC kit, Vector Labs, Inc., Burlingame, Calif.). Images were captured using a Leica DM1400B microsystem and Leica FW4000 version 1.2.1. The primary antibodies used for immunohistochemistry or Western blot were: SMA (NB600-531, Novus Biologicals®, Littleton, Colo.), BrdU (ab1293, Abcam, Cambridge, Mass.), cleaved-Caspase3 (9664, Cell Signaling, Danvers, Mass.), phosphor-Akt (4060, Cell Signaling), phospho-Erk (4376, Cell Signaling), phospho-S6 (4858, Cell Signaling), Actin (sc-1615, Santa Cruz, Santa Cruz, Calif.), Ras (05-516, Millipore, Billerica, Mass.), O-GlcNAc (ab2739, Abcam). Gfpt1 antibody was a kind gift from Immuno-Biological Laboratories Co., Gunma, Japan.
as §1
Lentiviruses were produced in 293T cells with packing mix (ViraPower Lentiviral Expression System, Invitrogen, Carlsbad, Calif.) as per manufacturer's instruction. 293T cell supernatant containing the shRNA lentivirus was collected, filtered through 0.45 μm filter, and added to target iKras cells in the presence of 8 μg/ml polybrene.
To further substantiate the essentiality of Kras^G12D-mediated control of protein glycosylation, the impact of shRNA-mediated knockdown of Gfpt1 was assessed. […]
For orientation: In western blotting, separated proteins are transferred to a membrane and probed.

Take `Cc1cc(C(=O)NOCCO)c(Nc2ccc(I)cc2F)n(C)c1=O` [AZD8330]: the Myc protein level result in the series on iKras p53L/+ cells [1] is “decreased”. The “metabolite changes in the glycolysis, HBP and nonoxidative PPP pathways” value in the series with iKras p53L/+ cells [2] (AZD8330 50 nM, FIG. 43) is recorded as “recapitulated the Kras^G12D inactivation induced metabolite changes”. In addition, the “expression of glycolytic genes (Glut1, Hk1, Eno1, Ldha), HBP gene (Gfpt1) and nonoxidative PPP gene (Rpia), relative mRNA” value with iKras p53L/+ cells [3] is “significantly decreased”.

With `Nc1cc(C(F)(F)F)c(-c2cc(N3CCOCC3)nc(N3CCOCC3)n2)cn1` [BKM120], the “impact on iKras-directed tumor metabolism” value in the series with iKras p53L/+ cells [2] (BKM120 150 nM, FIGS. 41, 42 and 43) is “did not exhibit a significant impact”.

With `CCCCS(=N)(=O)CCC(N)C(=O)O` (stereo not shown) [BSO, buthionine sulfoximine], the “ratio of GSH/GSSG” value in the series with iKras p53L/+ cells [4] is on record as “dramatically reduced”.

With “FASN shRNA1: lentiviral shRNA clone targeting FASN, GCTGGTCGTTTCTCCATTAAA (SEQ ID NO: 172)”, the colony formation result in the series with iKras p53L/+ PDAC cells was “marked decrease”. In addition, the FASN expression result in the series on FASN is reported as “marked decrease”.

For “shRNA4: lentiviral shRNA clone targeting FASN, CGTCTATACCACTGCTTACTA (SEQ ID NO: 175)”, the colony formation result in the series with iKras p53L/+ PDAC cells is given as “marked decrease”. In the series with FASN, the FASN expression entry is “marked decrease”.

For “shRNA #1: lentiviral shRNA clone targeting Gfpt1, CCTGAAACTTAAGACAGTTAA (SEQ ID NO: 165)”, the “overall O-linked glycosylation (O-GlcNAc)” value in the series with Gfpt1 is given as “reduced”.

Turning to “shRNA #2: lentiviral shRNA clone targeting Gfpt1, CGTCTCTCTATCCACCGAATT (SEQ ID NO: 166)”, the “overall O-linked glycosylation (O-GlcNAc)” value in the series on Gfpt1 was “failed to affect glycosylation”.

For “shRNA #3: lentiviral shRNA clone targeting Gfpt1, CAGGGCATTCTCAGTGTGATT (SEQ ID NO: 167)”, the “overall O-linked glycosylation (O-GlcNAc)” value in the series with Gfpt1 is on record as “reduced”.

“shRNAS: lentiviral shRNA clone targeting FASN, GCTGCGGAAACTTCAGGAAAT (SEQ ID NO: 176)”: in the series with iKras p53L/+ PDAC cells, the colony formation entry is “to some extent”.
